{
  "source": "patent US20060069132A1",
  "about": "“Azolecarboxamide herbicides” (priority 2004, published 2006)",
  "key": {"wheat": {"test_system": "wheat", "assay": "Test B postemergence herbicide test", "format": "in vivo, Triticum aestivum", "settings": "Triticum aestivum, post-emergence, 336 h, postemergence, read-out: Wheat plant response rating", "outline": "(§1)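 Read-out: visual comparison with controls, scored 0 to 100, where 100 means complete control and 0 no effect. Formulated chemicals were applied postemergence to plants 2–18 cm tall (1- to 4-leaf), or to flooded-paddy plants at the 2-leaf stage, then held 13 to 15 days under glass.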"}, "ducksalad": {"test_system": "ducksalad", "assay": "Test B flooded paddy test", "format": "in vivo, Heteranthera limosa", "settings": "Heteranthera limosa, 336 h, 1000 g ai/ha, scale 0 to 100 (0 no effect, 100 complete control), read-out: Ducksalad plant response rating", "outline": "(§2)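 Postemergence plants were sprayed with formulated test chemicals at 2 to 18 cm height (1- to 4-leaf stage); paddy species were grown to the 2-leaf stage. After 13 to 15 days in a greenhouse, injury was rated visually against untreated controls on a 0–100 scale (0 = no effect, 100 = complete control).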"}, "giant foxtail": {"test_system": "giant foxtail", "assay": "Test B pre-/postemergence herbicide test", "format": "in vivo, Setaria faberi", "settings": "Setaria faberi, 336 h; for pest or weed control at 125 g/ha: 125 g ai/ha; for pest or weed control at 500 g/ha: 500 g ai/ha", "outline": "(§3)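 Herbicidal effect was judged by eye on a 0–100 scale after plants stood 13 to 15 days in the greenhouse following pre- or postemergence treatment with surfactant-containing formulations.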"}, "barnyardgrass [1]": {"test_system": "barnyardgrass", "assay": "Test B pre-/postemergence herbicide test", "format": "in vivo, Echinochloa crus-galli", "settings": "Echinochloa crus-galli; for pest or weed control at 125 g/ha: 125 g ai/ha; for pest or weed control at 500 g/ha: 500 g ai/ha", "outline": "(§4)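 Seeds were planted and treated preemergence with compounds formulated in a non-phytotoxic solvent mixture containing surfactant, while plants at the 1- to 4-leaf stage (2 to 18 cm) received postemergence sprays. Flooded paddy plants were grown to the 2-leaf stage. After 13 to 15 days in a greenhouse, injury was visually rated 0–100 against untreated controls.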"}, "cocklebur": {"test_system": "cocklebur", "assay": "Test B pre-/postemergence herbicide test", "format": "in vivo, Xanthium strumarium", "settings": "Xanthium strumarium; for pest or weed control at 125 g/ha: 125 g ai/ha; for pest or weed control at 500 g/ha: 500 g ai/ha", "outline": "as §4"}, "blackgrass": {"test_system": "blackgrass", "assay": "Test B postemergence herbicide test", "format": "in vivo, Alopecurus myosuroides", "settings": "Alopecurus myosuroides, post-emergence, 336 h, postemergence, visual rating, scale 0 (no effect) to 100 (complete control), read-out: Blackgrass plant response rating", "outline": "as §2"}, "barnyardgrass [2]": {"test_system": "barnyardgrass", "assay": "Test B flooded paddy test", "format": "in vivo, Echinochloa crus-galli", "settings": "Echinochloa crus-galli, 336 h, 1000 g ai/ha, scale 0 to 100 (0 no effect, 100 complete control), read-out: Barnyardgrass plant response rating", "outline": "as §2"}, "[3]": {"test_system": "small flower umbrella sedge", "assay": "Test B flooded paddy test", "format": "in vivo, Cyperus difformis", "settings": "Cyperus difformis, 336 h, 1000 g ai/ha, scale 0 to 100 (0 no effect, 100 complete control), read-out: Sedge, Umbrella plant response rating", "outline": "as §2"}, "velvetleaf": {"test_system": "velvetleaf", "assay": "Test B pre-/postemergence herbicide test", "format": "in vivo, Abutilon theophrasti", "settings": "Abutilon theophrasti, 336 h; for pest or weed control at 125 g/ha: 125 g ai/ha; for pest or weed control at 500 g/ha: 500 g ai/ha", "outline": "as §3"}, "lambsquarters": {"test_system": "lambsquarters", "assay": "Test B pre-/postemergence herbicide test", "format": "in vivo, Chenopodium album", "settings": "Chenopodium album, post-emergence, 336 h, postemergence, read-out: Lambsquarters plant response rating", "outline": "as §3"}, "pigweed": {"test_system": "pigweed", "assay": "Test B pre-/postemergence herbicide test", "format": "in vivo, Amaranthus retroflexus", "settings": "Amaranthus retroflexus, 336 h; for pest or weed control at 125 g/ha: 125 g ai/ha", "outline": "as §3"}, "morningglory": {"test_system": "morningglory", "assay": "Test B pre-/postemergence herbicide test", "format": "in vivo, Ipomoea coccinea", "settings": "Ipomoea, 336 h; for pest or weed control at 125 g/ha: 125 g ai/ha; for pest or weed control at 500 g/ha: 500 g ai/ha", "outline": "as §4"}, "corn": {"test_system": "corn", "assay": "Test B pre-/postemergence herbicide test", "format": "in vivo, Zea mays", "settings": "Zea mays", "outline": "as §3"}, "rice": {"test_system": "rice", "assay": "Test B flooded paddy test", "format": "in vivo, Oryza sativa", "settings": "Oryza sativa, 336 h, 1000 g ai/ha, scale 0 to 100 (0 no effect, 100 complete control), read-out: Rice plant response rating", "outline": "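Treated at 2-leaf (paddy) or 1–4-leaf, 2–18 cm (postemergence); greenhouse 13–15 d; visual score vs control, 0 none to 100 complete control; dash = not tested.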"}, "wild oat": {"test_system": "wild oat", "assay": "Test B postemergence herbicide test", "format": "in vivo, Avena fatua", "settings": "Avena fatua, post-emergence, 336 h, postemergence, read-out: Oat, Wild plant response rating", "outline": "as §1"}, "[4]": {"settings": "125 g ai/ha, visual rating, scale 0 (no effect) to 100 (complete control)"}, "[5]": {"settings": "500 g ai/ha, scale 0 to 100, 0 is no effect, 100 is complete control"}, "[6]": {"settings": "post-emergence, postemergence, visual rating, scale 0 (no effect) to 100 (complete control), read-out: Barnyardgrass plant response rating"}, "[7]": {"settings": "post-emergence, postemergence, visual rating, scale 0 (no effect) to 100 (complete control), read-out: Cocklebur plant response rating"}},
  "note": "Read-outs that look alike come from different tables or passages of the source.",
  "data": [
    {"smiles": "CCN(CC)C(=O)c1cncc(NC(=O)c2cc(C(C)(C)C)nn2CC)c1", "note": "[Compound 261, 5-[[[3-(1,1-dimethylethyl)-1-ethyl-1H-pyrazol-5-yl]carbonyl]amino]-N,N-diethyl-3-pyridinecarboxamide]", "values": [
      {"measurement": "plant injury at 125 g/ha", "setting": "wheat; [4]", "value": 0, "unit": "%"},
      {"measurement": "plant injury at 500 g/ha", "setting": "wheat; [5]", "value": 20, "unit": "%"},
      {"measurement": "pest or weed control at 1000 g/ha", "setting": "ducksalad", "value": 80, "unit": "%"},
      {"measurement": "pest or weed control at 125 g/ha", "setting": "giant foxtail; post-emergence, postemergence, visual rating, scale 0 (no effect) to 100 (complete control), read-out: Foxtail, Giant plant response rating", "value": 0, "unit": "%"},
      {"measurement": "pest or weed control at 500 g/ha", "setting": "giant foxtail; post-emergence, postemergence, scale 0 to 100, 0 is no effect, 100 is complete control, read-out: Foxtail, Giant plant response rating", "value": 0, "unit": "%"},
      {"measurement": "pest or weed control at 125 g/ha", "setting": "giant foxtail; pre-emergence, 0 = no effect, 100 = complete control, read-out: Foxtail, Giant plant response rating (0 to 100 scale)", "value": 0, "unit": "%"},
      {"measurement": "pest or weed control at 500 g/ha", "setting": "giant foxtail; pre-emergence, visual rating, 0 = no effect, 100 = complete control, read-out: Plant response rating, Foxtail, Giant", "value": 0, "unit": "%"},
      {"measurement": "pest or weed control at 125 g/ha", "setting": "barnyardgrass [1]; [6]", "value": 0, "unit": "%"},
      {"measurement": "pest or weed control at 500 g/ha", "setting": "barnyardgrass [1]; [6]", "value": 0, "unit": "%"},
      {"measurement": "pest or weed control at 125 g/ha", "setting": "barnyardgrass [1]; pre-emergence, 0 = no effect, 100 = complete control, read-out: Barnyardgrass plant response rating (0 to 100 scale)", "value": 0, "unit": "%"},
      {"measurement": "pest or weed control at 500 g/ha", "setting": "barnyardgrass [1]; pre-emergence, visual rating, 0 = no effect, 100 = complete control, read-out: Plant response rating, Barnyardgrass", "value": 20, "unit": "%"},
      {"measurement": "pest or weed control at 125 g/ha", "setting": "cocklebur; [7]", "value": 0, "unit": "%"},
      {"measurement": "pest or weed control at 500 g/ha", "setting": "cocklebur; [7]", "value": 10, "unit": "%"},
      {"measurement": "pest or weed control at 125 g/ha", "setting": "cocklebur; pre-emergence, 0 = no effect, 100 = complete control, read-out: Cocklebur plant response rating (0 to 100 scale)", "value": 0, "unit": "%"},
      {"measurement": "pest or weed control at 500 g/ha", "setting": "cocklebur; pre-emergence, visual rating, 0 = no effect, 100 = complete control, read-out: Plant response rating, Cocklebur", "value": 0, "unit": "%"},
      {"measurement": "pest or weed control at 125 g/ha", "setting": "blackgrass; 125 g ai/ha", "value": 0, "unit": "%"},
      {"measurement": "pest or weed control at 500 g/ha", "setting": "blackgrass; 500 g ai/ha", "value": 20, "unit": "%"},
      {"measurement": "pest or weed control at 1000 g/ha", "setting": "barnyardgrass [2]", "value": 0, "unit": "%"},
      {"measurement": "pest or weed control at 1000 g/ha", "setting": "[3]", "value": 30, "unit": "%"},
      {"measurement": "pest or weed control at 125 g/ha", "setting": "velvetleaf; post-emergence, postemergence, visual rating, scale 0 (no effect) to 100 (complete control), read-out: Velvetleaf plant response rating", "value": 0, "unit": "%"},
      {"measurement": "pest or weed control at 500 g/ha", "setting": "velvetleaf; post-emergence, postemergence, scale 0 to 100, 0 is no effect, 100 is complete control, read-out: Velvetleaf plant response rating", "value": 0, "unit": "%"},
      {"measurement": "pest or weed control at 125 g/ha", "setting": "velvetleaf; pre-emergence, 0 = no effect, 100 = complete control, read-out: Velvetleaf plant response rating (0 to 100 scale)", "value": 0, "unit": "%"},
      {"measurement": "pest or weed control at 500 g/ha", "setting": "velvetleaf; pre-emergence, visual rating, 0 = no effect, 100 = complete control, read-out: Plant response rating, Velvetleaf", "value": 20, "unit": "%"},
      {"measurement": "pest or weed control at 125 g/ha", "setting": "lambsquarters; [4]", "value": 10, "unit": "%"},
      {"measurement": "pest or weed control at 500 g/ha", "setting": "lambsquarters; [5]", "value": 60, "unit": "%"},
      {"measurement": "pest or weed control at 125 g/ha", "setting": "pigweed; post-emergence, postemergence, visual rating, scale 0 (no effect) to 100 (complete control), read-out: Pigweed plant response rating", "value": 20, "unit": "%"},
      {"measurement": "pest or weed control at 500 g/ha", "setting": "pigweed; post-emergence, postemergence, 500 g ai/ha, scale 0 to 100, 0 is no effect, 100 is complete control, read-out: Pigweed plant response rating", "value": 70, "unit": "%"},
      {"measurement": "pest or weed control at 125 g/ha", "setting": "pigweed; pre-emergence, 0 = no effect, 100 = complete control, read-out: Pigweed plant response rating (0 to 100 scale)", "value": 0, "unit": "%"},
      {"measurement": "pest or weed control at 125 g/ha", "setting": "morningglory; post-emergence, postemergence, visual rating, scale 0 (no effect) to 100 (complete control), read-out: Morningglory plant response rating", "value": 0, "unit": "%"},
      {"measurement": "pest or weed control at 500 g/ha", "setting": "morningglory; post-emergence, postemergence, scale 0 to 100, 0 is no effect, 100 is complete control, read-out: Morningglory plant response rating", "value": 0, "unit": "%"},
      {"measurement": "pest or weed control at 125 g/ha", "setting": "morningglory; pre-emergence, 0 = no effect, 100 = complete control, read-out: Morningglory plant response rating (0 to 100 scale)", "value": 0, "unit": "%"},
      {"measurement": "pest or weed control at 500 g/ha", "setting": "morningglory; pre-emergence, visual rating, 0 = no effect, 100 = complete control, read-out: Plant response rating, Morningglory", "value": 0, "unit": "%"},
      {"measurement": "plant injury at 125 g/ha", "setting": "corn; post-emergence, postemergence, 125 g ai/ha, visual rating, scale 0 (no effect) to 100 (complete control), read-out: Corn plant response rating", "value": 10, "unit": "%"},
      {"measurement": "plant injury at 500 g/ha", "setting": "corn; post-emergence, postemergence, 500 g ai/ha, scale 0 to 100, 0 is no effect, 100 is complete control, read-out: Corn plant response rating", "value": 20, "unit": "%"},
      {"measurement": "Corn plant response rating (crop injury, 0 = no effect, 100 = complete kill) at 500 g/ha", "setting": "corn; pre-emergence, 500 g ai/ha, visual rating, 0 = no effect, 100 = complete control", "value": 0, "unit": "%"},
      {"measurement": "plant injury at 1000 g/ha", "setting": "rice", "value": 60, "unit": "%"},
      {"measurement": "pest or weed control at 125 g/ha", "setting": "wild oat; [4]", "value": 0, "unit": "%"},
      {"measurement": "pest or weed control at 500 g/ha", "setting": "wild oat; [5]", "value": 20, "unit": "%"}
    ]}
  ]
}
